Laboratory results reported in US20080269317A1, “Compounds for Covalent Binding to MD-2 and Effect on the Immune Response” (priority 2005, published 2008).

Experiments:
MD-2 [1] = target: T1, MD-2 (Homo sapiens, UniProt Q9Y6Y9); assay: Binding to MD-2 monitored through the increase of the fluorescence (spectrofluorimeter); details: 100 nM MD-2 added to 200 nM compound in milliQ water, 25° C., time dependent
T1 construct: made in house; host or cells: Escherichia coli
T1 sequence (Q9Y6Y9 19-160): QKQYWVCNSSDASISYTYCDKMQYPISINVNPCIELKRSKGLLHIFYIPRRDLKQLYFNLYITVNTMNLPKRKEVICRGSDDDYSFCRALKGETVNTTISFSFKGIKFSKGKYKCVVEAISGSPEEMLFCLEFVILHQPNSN
Source text: In the first example of the invention we used recombinant MD-2 produced in bacteria Escherichia coli to test the binding of the compounds, which contain a hydrophobic group and a group, which binds to the cysteine residue. This protein has biological activity as endogenous MD-2 and added protein enables response to LPS to cells lacking endogenous MD-2. We tested binding of compounds 2-(4′-(iodoacetamido)anilino)naphthalene-6-sulfonic acid (IAANS) and N-(1-pyrene)maleimide, which in addition to the above mentioned properties also have the additional feature of fluorescence, which makes them useful to show the principle of the invention. […] Change of the environment, which is a result of binding of the compound into the hydrophobic pocket, causes an increase of the fluorescence intensity of compounds, which is detected by measuring the emission fluorescence spectra using the spectrofluorimeter. […]
IAANS (Molecular Probes, USA) is an example of a compound with an alkylhalide group, which is reactive with a thiol group, an anilinonaphthalene group as a hydrophobic group and a sulfonic group as an anionic group. […] IAANS concentration was determined by measuring the absorbance at 326 nm in methanol (extinction coefficient at 326 nm in methanol is 27 000 cm^−1M^−1). […] Binding to MD-2 increases the fluorescence intensities of both compounds. […]

MonoMac6 cells [2] = assay: Activation of MonoMac6 cells without LPS, monitored through secreted TNF-alpha (ELISA); assay type: cell-based, human; details: different concentrations of IAANS, no LPS; supernatant after 20 hours
Source text: The activation of the host innate immune system can have an important role for the treatment of diseases such as microbial infections, cancer and other diseases, where the participation of the innate immunity system is important. It is important that the compound, which activates the innate immune system has no other effects. If the compound activates the cells of the innate immunity, the same cytokines are secreted as by the activation with LPS, so the same assay can be used. For the assay we have used human monocytic cells MonoMac6. Into the 96-well plate we seeded 1×10^5 cells per well in the media for MonoMac6 cells. We added 50 ng/ml of phorbol 12-myristate […] (Sigma), which is needed for differentiation of cells into macrophages. Then we added different concentrations of IAANS and incubated. 20 hours after the stimulation we took the cell supernatants, centrifuged for 3 min at 13 000 rpm and performed ELISA test for TNF-alpha.
To MonoMac6 cells we added different concentrations of IAANS. […] Cells secreted TNF-alpha, which stimulates the innate immune response, which is important for the acquired immunity at vaccination or treatment of disease such as cancer, where the activation of host immune response is desirable. […]

MonoMac6 cells [3] = assay: Inhibition of TNF-alpha synthesis (ELISA) in MonoMac6 cells stimulated with LPS; assay type: cell-based, human; details: different concentrations of IAANS, 1 hour, then 20 ng/ml LPS; supernatant after 20 hours
Source text: The effect of certain compound on the cell activation by LPS can also be detected by determination of the amount of cytokines, which are released by the cell activation. Addition of LPS to macrophage cells (or other cells, which normally express MD-2 and TLR4) causes the secretion of inflammatory cytokines such as TNF-alpha, IL-1, IL-8 . . . […] The amount of cytokines released into the media can be determined by the ELISA test. For the experiment we used monocytic cells MonoMac6. To 96-well plate we seeded 1×10^5 cells per well in media for MonoMac6 cells (RPMI with 10% FBS, nonessential aminoacids and OPI (both from Sigma)). 50 ng/ml of phorbol 12-myristate […] (Sigma) needed for differentiation into macrophages was added to cells. IAANS was added at different concentrations and incubated 1 hour, followed by the addition of 20 ng/ml LPS. 20 hours after the stimulation we took the supernatant, centrifuged it for 3 min on 13 000 rpm and performed the ELISA test for TNF-alpha.
To MonoMac6 cells, which express MD-2 and TLR4, we added different concentrations of IAANS and LPS and determined the concentration of TNF-alpha in media using the ELISA test.

MD-2 [4] = target: T1, MD-2; assay: Covalent binding to MD-2: fluorescence after GdnHCl denaturation and acetone precipitation, with or without iodoacetamide blocking
Description: In the second example of the invention we show, that binding of the compound to MD-2 is irreversible, therefore after binding to MD-2, compound remains permanently bound to the protein and therefore prevent binding of LPS or other ligands to MD-2.
The compounds with features mentioned above covalently bind to MD-2. The binding experiment was performed by adding to the concentration of MD-2 two times concentration excess of N-(1-pyrene) maleimide and incubated one hour at room temperature in the dark. The compound, which nonspecifically (noncovalently) bound to MD-2 was released from the protein by denaturation of the protein in 6 M guanidinium hydrochloride (GdnHCl). To the dissolved denatured protein we added five volumes of chilled (−20° C.) acetone and incubated for additional 60 min at −20° C. Then we centrifuged for 10 min at 13 000 rpm. […] The precipitate was dissolved in […] of 6 M GdnHCl and fluorescence emission spectrum was measured with excitation at 338 nm (FIG. 2). […] Binding of iodoacetamide inhibited binding of a compound to free cysteine residue on MD-2, which can be detected by lower fluorescence intensity of the compound.
We compared the fluorescence of MD-2, incubated with N-(1-pyrene) maleimide and to MD-2, with said compound, where we have previously added iodoacetamide for blocking free cysteine residues.

`O=C(CI)Nc1ccc(Nc2ccc3cc(S(=O)(=O)O)ccc3c2)cc1` [IAANS, 2-(4′-(iodoacetamido)anilino)naphthalene-6-sulfonic acid] was tested, and the “change of the fluorescence intensity at emission maximum after addition of MD-2” value (MD-2 [1]) was “increase of the IAANS fluorescence after binding to MD-2”, the “activation of MonoMac6 cells (secreted TNF-alpha)” value (MonoMac6 cells [2]) was “activated the cells in the concentration dependent manner” and the “inhibition of LPS dependent synthesis of TNF-alpha” value (MonoMac6 cells [3]) was “inhibited LPS dependent synthesis of TNF-alpha in a concentration-dependent manner”.

With `NC(=O)CI` [iodoacetamide, reference compound] the “effect of previous incubation with iodoacetamide on binding of N-(1-pyrene) maleimide to MD-2” value (MD-2 [4]; five molar excess of iodoacetamide added beforehand to block free cysteine residues) was “inhibited binding of N-(1-pyrene) maleimide to MD-2”.

For `O=C1C=CC(=O)N1c1ccc2ccc3cccc4ccc1c2c34` [N-(1-pyrene) maleimide, N-(1-pyrene)maleimide], the “change of the fluorescence intensity at emission maximum after addition of MD-2” value (MD-2 [1]) was “increase of the N-(1-pyrene) maleimide fluorescence after binding to MD-2” and the “covalent (irreversible) binding to MD-2: emission spectrum preserved in 6 M GdnHCl” value (MD-2 [4]; two times excess of compound, one hour at room temperature, denaturation in 6 M GdnHCl, acetone precipitation, excitation 338 nm) was “irreversibly bound to MD-2”.
